Measured values: PMC7824769, “Identification of Small Molecules Blocking the Pseudomonas aeruginosa Type III Secretion System Protein PcrV” (Biomolecules, 2021)
Values joined by “and” are separate entries in the source; they are usually repeats but may differ in a detail not shown here. Equal values may be shown once.

Legend:
PcrV = PcrV (Pseudomonas aeruginosa, UniProt G3XD49); test: SPR dose-response binding to immobilized PcrV (equilibrium analysis); details: for Binding to PcrV in SPR (in words): dose-response SPR
Chain of PcrV (G3XD49 entry or part of it): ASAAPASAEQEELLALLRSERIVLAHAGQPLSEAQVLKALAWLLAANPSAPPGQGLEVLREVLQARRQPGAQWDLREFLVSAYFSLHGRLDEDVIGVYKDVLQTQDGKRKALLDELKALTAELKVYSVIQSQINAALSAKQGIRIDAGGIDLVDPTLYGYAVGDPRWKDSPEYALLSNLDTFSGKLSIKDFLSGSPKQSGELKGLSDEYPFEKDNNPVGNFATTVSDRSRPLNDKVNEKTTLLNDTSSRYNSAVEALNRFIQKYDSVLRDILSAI
Method: The SPR screening was performed using the ProteOn^TM XPR36 Protein Interaction Array System (Bio-Rad Laboratories Inc., Hercules, CA, USA) with ProteOn GLH sensor chip (Bio-Rad Laboratories Inc., Hercules, CA, USA), and the results were analyzed with the ProteOn Manager software^TM (Bio-Rad Laboratories Inc., Hercules, CA, USA), Excel 2016 (Microsoft Office), and GraphPad Prism 7.04. All SPR experiments were performed at 25 °C. The multichannel module of the ProteOn system was in the vertical position during protein immobilization. The proteins were attached to the surface of a GLH sensor chip via amine coupling chemistry. A buffer scouting was performed to elucidate the optimal binding conditions of PcrV to the GLH sensor chip. First, channels 1–4 on the chip surface were activated using a 1:1 mixture of 40 mM 1-ethyl-3-(3-dimethylaminopropyl)carbodiimide hydrochloride (EDAC) (Bio-Rad Laboratories Inc., Hercules, CA, USA) and 10 mM N-hydroxysulfosuccinimide (sulfo-NHS, Bio-Rad Laboratories Inc., Hercules, CA, USA) for 300 s at 30 µL/min. Next, the proteins PcrV (33,398.6 Da, 6.37 mg/mL) was diluted in 10 mM NaOAc (pH 4, 4.5, and 5) to 0.05 mg/mL. PcrV was immobilized in channel 1–3 for 540 s at 30 µL/min. Channel 4 was flushed with 10 mM NaOAc (pH 5) for 540 s at 30 µL/min. As deactivating agent, a 1:1 mixture of 1 M ethanolamine and milli-Q filtered water was used. The deactivating solution was injected over all four channels for 300 s at 30 µL/min. Phosphate buffered saline with Tween (PBST; 10 mM phosphate buffer pH 7.4, 140 mM NaCl, 2.7 mM KCl, and 0.05% Tween 20) was used as the running buffer. The final amount of immobilized protein was measured in resonance units (RU) relative to the signal of the baseline prior activation. […] Immobilization of PcrV diluted in sodium acetate of pH 4.5 in one channel and of pH 5 in one channel were used in the beginning of the screening procedure (for plate 1–26). Since no difference was found between the two pH values, the PcrV protein was diluted in sodium acetate at pH 5 only (in two channels) from plate 27 and the rest of the screen. The immobilization procedure for the screening was performed as described above with the addition that the control protein carbonic anhydrase isoenzyme II from bovine erythrocytes (CAII, Sigma-Aldrich, article number 2522) was immobilized in one channel that was activated and deactivated as described above. CAII (1 mg/mL in PBS) was deactivated when diluted in 10 mM sodium acetate (pH 4) to 0.05 mg/mL. Immobilization level of the deactivated CAII was 18,000 RU. Deactivated CAII was used as a control protein according to the recommendations by the ProteOn manufacturer (Bio-Rad Laboratories Inc., Hercules, CA, USA). As running buffer, we employed PBS (pH 7.4, 0.05% Tween 20).
First, the PcrV protein was immobilized in two channels as described above while keeping a blank channel which was activated and deactivated as described above. The multichannel module of the ProteOn system was in horizontal position during the small molecule interaction studies. They were serially diluted to (400,) 200, 100, 50, 25, 12.5, 6.25, and (3.125); or 100, 50, 25, and 12.5 µM; or 100, 66.7, 44.4, 29.6, 19.7, and 13.2 µM in PBST (0.05% Tween 20) with a total concentration of 5% DMSO in 96-well plates. The running buffer was PBST (0.05% Tween 20) containing 5% DMSO. The analytes were injected at a flowrate of 100 µL/min, contact time was 60 s, and dissociation time was 60–120 s. Solvent correction was performed continuously during the experiments to account for bulk response of DMSO. The data was then baseline-aligned, processed by channel referencing with the blank channel, and solvent-corrected. The equilibrium dissociation constant (KD) values were determined from equilibrium analysis in the ProteOn Manager software^TM. Solubility problems frequently hampered KD determination since the small molecules could not always be dissolved in concentrations high enough to reach a plateau. […]

[1] = test system: J774 cells infected with P. aeruginosa strain PAK; test: cells; format: cell-based, Pseudomonas aeruginosa; details: for Anti-virulence efficacy in the infection assay (in words): 25-200 µM; for viability at 25 µM / viability at 50 µM / viability at 100 µM / viability at 200 µM: Pseudomonas aeruginosa, uninfected control = 100%, infected control = 0%; for viability at 25 µM: J774, compound 25 µM, read-out: Viability Assay (% of Uninfected Control) 25 µM; for viability at 50 µM: J774, compound 50 µM, read-out: Viability Assay (% of Uninfected Control) 50 µM; for viability at 100 µM: J774, compound 100 µM, read-out: Viability Assay (% of Uninfected Control) 100 µM; for viability at 200 µM: J774, compound 200 µM
Method: The cell viability assay was performed essentially as described before. J774 cells were seeded in 96-well micro-titer plates (Nunc), 100 µL/well, to a final number of 50,000 cells/well in Dulbecco’s modified Eagle’s medium (DMEM) with glutamax (Merck) supplemented with 10% fetal calf serum (FCS) and 3 µg/mL gentamicin and incubated for 16-18 h. Overnight cultures of the P. aeruginosa strains PAK and PAKpcrV [10] were grown in Luria Broth (LB) on a rotary shaker at 220 rpm at 37 °C. Prior to infection, the bacteria were diluted 1:10 in DMEM + glutamax and incubated for 1 h at 37 °C (shaking). The J774 cells were washed once with PBS, then 30 µL of DMEM with glutamax and 10% FCS supplemented with the potential binders at concentrations of 50, 100, 200, and 400 µM were added to the wells in triplicates. The infection was initiated by adding 30 µL of the diluted bacterial solutions (where the OD600 had been diluted to 0.0008) to each well to initiate infection. This infection results in a final bacterial concentration of OD600 = 0.0004 and a multiplicities of infection (MOI) of approximately 8, with final concentrations of the compounds at 25, 50, 100, and 200 µM in 60 µL of DMEM + glutamax and 5% FCS. In the primary screening, the compounds were run at one concentration (100 µM) in duplicates. As an infection control, the wild-type strain PAK with 1% DMSO was added, and as a positive control, PAKpcrV with 1% DMSO was added into four wells each. After 3 h and 30 min, 10 µL of UptiBlue Viable Cell Counting Kit (Interchime, France) was added to all wells. The infection was followed under the light microscope and the fluorescence (excitation 535 nm and emission 595 nm) was measured at 4, 5, and 6 h in a microplate reader (Synergy™ H4, Biotek). The results were calculated as percentage of living cells compared to uninfected control, where the uninfected control was set to 100% living cells and the infected control was set to 0% living cells. As a control, compounds were added to uninfected cells in a parallel experiment and viability was calculated as above to screen for cell toxicity. A compound was considered toxic if the viability was <80% of the uninfected control after 6 h of incubation and if a visual change of cell morphology was observed by microscopy. Z’ was calculated for each plate to ensure good quality throughout the screening. Only results from plates with a Z’ > 0.4 were counted. Standard deviation was calculated with Gaussian approximation when appropriate and shown as error bars in Figure 3C and Figure 4A.
The T3SS is important for P. aeruginosa infection of eukaryotic cells, and a T3SS activator mutant or a mutant lacking the T3SS tip protein PcrV are not able to infect eukaryotic cells. The macrophage cell line, J774, was infected with the wild-type P. aeruginosa strain PAK, and the potential PcrV binders were added to the wells at a final concentration of 100 µM to screen for inhibition of infection. The T3SS-mediated cytotoxic effect on the eukaryotic cells was measured by using a viability staining method (Uptiblue, Interchim), and the results were measured after 4, 5, and 6 h of infection. The pcrV-mutant (PAKpcrV), which is not able to infect macrophages due to deletion of the PcrV protein, was used as a control.

[2] = KD ± standard error of KD (Table S1), single experiment, standard error from ProteOn Manager software
[3] = SPR KD, equilibrium analysis, mean ± SD of three or more independent experiments, individual values where n < 3, 25 °C, PBST 5% DMSO

Row | SMILES | Kd (PcrV; [2]) | Kd (PcrV; [3]) | Rmax (Table S1) (PcrV; single experiment) | Anti-virulence efficacy in the infection assay (in words) [1] | viability at 25 µM [1] | viability at 50 µM [1] | viability at 100 µM [1] | viability at 200 µM [1] | Binding to PcrV in SPR (in words) (PcrV)
1 | Cc1cc(OCCCC(=O)O)cc(C)c1Br [Compound 14] | 80.7 ± 30.3 µM | < 150 µM and 148 µM | 78.9 | as efficacious as or better than H1 | 13% | 23% | 26% | 32% | –
2 | O=C(O)CCCOc1ccc(C2CCCCC2)cc1 [Compound 15] | – | 153 µM | – | – | 12% | 17% | 24% | 17% | –
3 | Cc1c(Br)ccc(OCCCC(=O)N2CCCC(C(=O)O)C2)c1C (centres unmarked) [Compound 20] | 71.2 ± 23 µM | 71 µM and 131 µM | – | no or modest anti-virulence activity without clear dose-response | 15% | 15% | 15% | 9% | –
4 | Cc1cc(Br)cc(C)c1OCCCC(=O)O [Compound 13] | – | 431 ± 110 µM | – | – | 19% | 18% | 21% | 20% | reduced binding
5 | O=C(O)CCCOc1ccc(Br)cc1F [Compound 5] | – | > 600 µM | – | – | – | – | – | – | no binding at the examined concentrations
6 | O=C(O)CCCOc1cccc(C(=O)O)c1 [Compound 10] | – | > 600 µM | – | – | – | – | – | – | no binding to PcrV
7 | Cc1c(Br)ccc(OCCCCC(=O)O)c1C [Compound 31] | – | 120 µM and 138 µM | – | no or modest anti-virulence activity without clear dose-response | 11% | 17% | 18% | 17% | –
8 | O=C(O)CCCOc1ccc(I)cc1 [Compound 4] | – | > 600 µM | – | – | – | – | – | – | no binding at the examined concentrations
9 | O=C(O)CCCOc1cccc(C(F)(F)F)c1 [Compound 9] | – | > 600 µM | – | – | – | – | – | – | no binding to PcrV
10 | O=C(O)CCCOc1ccc(Cc2ccccc2)cc1 [Compound 16] | – | > 600 µM | – | – | – | – | – | – | –
11 | O=C(O)CCCOc1ccc(Cl)cc1 [Compound 3] | – | > 600 µM | – | – | – | – | – | – | no binding at the examined concentrations
12 | O=C(O)CCCOc1ccc2ccc(=O)oc2c1 [Compound 11] | – | > 600 µM | – | – | – | – | – | – | no binding to PcrV
13 | O=C(O)CCCOc1cc(Cl)cc(Cl)c1 [Compound 2] | – | < 127 µM and 102 µM and 127 µM | – | – | – | – | – | – | –
14 | Cc1c(Br)ccc(OCCCC(=O)NC(C(=O)O)c2ccccc2)c1C (centres unmarked) [Compound 21] | 66.5 ± 18.5 µM | 67 µM and 88 µM | 149.8 | – | 12% | 26% | 36% | 30% | –
15 | COc1ccc(Br)cc1OCCCC(=O)O [Compound 6] | – | > 600 µM | – | – | – | – | – | – | impaired binding
16 | Cc1cc(C#N)cc(C)c1OCCCC(=O)O [Compound 12] | – | > 600 µM | – | – | – | – | – | – | reduced binding
17 | Cc1c(Br)ccc(OCCCC(=O)Nc2cc(F)c(F)cc2C(=O)O)c1C [Compound 24] | – | > 600 µM | – | – | – | – | – | – | failed to bind PcrV
18 | O=C(O)CCCOc1ccc2c(c1)OCO2 [Compound 8] | – | > 600 µM | – | – | – | – | – | – | impaired binding
19 | Cc1c(Br)ccc(OCCCC(=O)N2CCCCC2C(=O)O)c1C (centres unmarked) [Compound 22] | 61.5 ± 14.9 µM | 62 µM and 77 µM | 108.6 | – | 18% | 27% | 29% | 28% | –
20 | COC(=O)CCCOc1ccc(Br)c(C)c1C [Compound 29] | 206 ± 77 µM | 110 ± 83 µM | 60 | – | 8% | 12% | 23% | 14% | –
21 | COc1cc(OC)cc(OCCCC(=O)O)c1 [Compound 7] | – | > 600 µM | – | – | – | – | – | – | impaired binding
22 | Cc1c(Br)ccc(OCCCC(=O)NS(=O)(=O)C(F)(F)F)c1C [Compound 25] | – | 102 µM and 164 µM | – | as efficacious as or better than H1 | 9% | 11% | 22% | 34% | –
23 | Cc1c(Br)ccc(OCCCC(=O)NS(C)(=O)=O)c1C [Compound 26] | 135 ± 30 µM | 93 ± 31 µM | – | – | 10% | 11% | 17% | 13% | –
